Source: patent US20240228491A1, “METHIONINE ADENOSYLTRANSFERASE INHIBITOR, PREPARATION METHOD THEREFOR AND APPLICATION THEREOF” (SCINNOHUB PHARMACEUTICAL CO., LTD., priority 2021, published 2024)

How the values were obtained:
MAT2a = MAT2a (Homo sapiens (Human), UniProt P31153); assay: MAT2a enzymatic activity test (colorimetric assay); format: biochemical; details: OD620, 150 min reaction, read-out: IC50 against MAT2a
Experimental: The Colorimetric assay method was used to detect the IC50 value of the tested compounds on MAT2a.
The specific steps were as follows: The compounds having the test starling concentration of 1 μM or 10 μM were diluted into 10 concentration points in a 3-fold gradient. 250 nL of the solutions of the compounds to be tested with 10 different concentrations were taken and added into a 384 well plate for later use. 20 μg/mL of MAT2a enzyme solution was prepared with Assay buffer (50 mM Tris, 50 mM KCl, 10 mM MgCl2, 0.05% polyoxyethylene lauryl ether, pH 8.0). 15 μL of the MAT2a enzyme solution at 20 μg/mL was add into the wells of the compounds to be tested at different concentrations; and 15 μL of Assay buffer was added into the negative control well. An incubation was carried out for 15 minutes after shaking for mixing well. A mixed substrate solution (comprising 400 μM ATP and 600 μM L-Methionine) was prepared with Assay buffer. 10 μL of the mixed substrate solution was added to the positive control well, the compound to be tested well, and the negative control well, respectively, and the reaction began, for a reaction time of 150 min. Then, 50 μL of the reaction stop solution (BIOMOL Green™ Reagent Enzo lifesciences, Cargo No. BML-AK111-1000) was added to stop the reaction, followed by being centrifuged at 1000 rpm for 60 s and then being incubated for 15 min. OD620 was read and data were processed.
By using the log value of the concentration as the X-axis and the inhibition % as the Y-axis, the IC50 value of each compound against enzyme activity was obtained through employing the log(inhibitor) vs. response-Variable slope fitting dose-effect curve of the analysis software GraphPad Prism 5.

HCT116 MTAP-/- cells = assay: Activity test of HCT116 MTAP gene homozygous deletion cells (CellTiter-Glo); format: cell-based; details: Homo sapiens, HCT-116, 120 h incubation, read-out: HCT116 MTAP-/- Cell IC50
Experimental: On day 1, cell seeding: after digestion of the cells with trypsin, the cells were resuspended to the desired density with the complete medium (RPMI-1640 supplemented with 10% FBS; the brand of FBS is EXCELL, Cat. No. FND500; the brand of RPMI-1640 is ATCC, Cat. No. 30-2001), mixed evenly, and added into the 96-well plate at 100 μL/well with a cell density of 1000-3000 cells per well. The plate was put back to the incubator for the adherent growth of cells. On day 2, the addition of the compounds to be tested: before the addition of the compounds, the cells were starved with serum-free medium for 4 h, then the complete medium containing the corresponding concentration of compounds was added thereto, and the cells were incubated at 37° C., 5% CO2 for 120 h. On day 7, the cell culture plates were taken out from incubator and equilibrated to room temperature. 50 μL of CellTiter-Glo (Promega Company, Cat. No. G7571) reagent was added per well, and the cells were fully lysed by shaking at room temperature for 2 min, and then incubated for another 60 min to detect the fluorescence intensity. Calculation formula:
% Inhibition=100−(signal of the well with the compound to be tested−signal of the well with only medium and free of cells)/(signal of the well with cells but without addition of the compound−signal of the well with only medium and free of cells)×100.
The fitting dose-effect curve of the analysis software GraphPad Prism 5 was used to give IC50 values of the individual compounds against cellular activity.

Sequence of MAT2a (P31153 whole entry): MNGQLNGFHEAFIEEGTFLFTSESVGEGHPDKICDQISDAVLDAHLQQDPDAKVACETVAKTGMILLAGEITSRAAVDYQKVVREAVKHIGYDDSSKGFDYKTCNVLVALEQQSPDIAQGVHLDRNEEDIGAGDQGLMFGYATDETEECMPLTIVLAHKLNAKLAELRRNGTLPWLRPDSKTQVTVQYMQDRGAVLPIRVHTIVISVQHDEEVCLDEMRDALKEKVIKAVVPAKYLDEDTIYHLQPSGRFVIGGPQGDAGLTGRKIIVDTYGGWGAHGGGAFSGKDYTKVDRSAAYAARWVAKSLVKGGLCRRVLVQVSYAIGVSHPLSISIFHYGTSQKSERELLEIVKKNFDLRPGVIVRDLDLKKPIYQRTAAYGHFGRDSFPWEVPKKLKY

Compound	IC50 (MAT2a)	IC50 (HCT116 MTAP-/- cells)
Cc1ccc(-n2c(=O)c(-n3cncn3)c(N)c3ccc(C(F)(F)F)nc32)cc1 [Example 82]	16 nM	
Nc1c(-c2ccc3c(c2)OCO3)c(=O)n(-c2ccc(Br)cc2)c2nc(C(F)(F)F)ccc12 [Example 86]	15.9 nM	
Cn1cc(-c2c(N)c3ccc(C(F)(F)F)nc3n(-c3ccc(Cl)cc3F)c2=O)ccc1=O [Example 78]	14 nM	
Cc1cc(-c2c(N)c3ccc(C(F)(F)F)nc3n(-c3ccc(Cl)cc3)c2=O)on1 [Example 16]	41.9 nM	
COc1ccc(-c2c(N)c3ccc(C(F)(F)F)nc3n(-c3ccc(Cl)cc3)c2=O)nc1 [Example 61]	17 nM	
COc1ccc(-c2c(N)c3ccc(C(F)(F)F)nc3n(-c3ccc(Br)cc3)c2=O)nc1 [Example 85]	15.2 nM	
Cn1c(N)nc2ccc(-c3c(N)c4ccc(C(F)(F)F)nc4n(-c4ccc(Cl)cc4)c3=O)cc21 [Example 37]	20.2 nM	
CN(C)CCn1cc2cc(-c3c(N)c4ccc(C(F)(F)F)nc4n(-c4ccc(Cl)cc4)c3=O)ccc2n1 [Example 72]	16.5 nM	
Cn1cc2cc(-c3c(N)c4ccc(C(F)(F)F)nc4n(-c4ccc(Br)cc4)c3=O)ccc2n1 [Example 92]	17.4 nM	
Cn1nc2ccc(-c3c(N)c4ccc(C(F)(F)F)nc4n(-c4ccc(Cl)cc4)c3=O)cc2n1 [Example 64]	15.4 nM	10.7 nM
Cn1cnc2ccc(-c3c(N)c4ccc(C(F)(F)F)nc4n(-c4ccc(Br)cc4)c3=O)cc21 [Example 80]	15.5 nM	13.1 nM
Nc1c(-c2ccc3nccnc3c2)c(=O)n(-c2ccc(Br)cc2)c2nc(C(F)(F)F)ccc12 [Example 83]	17.2 nM	9.12 nM
Nc1c(-c2ccc3cncnc3c2)c(=O)n(-c2ccc(Cl)cc2)c2nc(C(F)(F)F)ccc12 [Example 70]	30.5 nM	
Nc1c(-n2ccnc2)c(=O)n(-c2ccc(Cl)cc2)c2nc(C(F)(F)F)ccc12 [Example 35]	14.9 nM	
Nc1c(-c2ccc(=O)n(CC(F)(F)F)c2)c(=O)n(-c2ccc(Cl)cc2)c2nc(C(F)(F)F)ccc12 [Example 57]	17.1 nM	
CN(C)CCn1ncc2cc(-c3c(N)c4ccc(C(F)(F)F)nc4n(-c4ccc(Cl)cc4)c3=O)ccc21 [Example 73]	18.8 nM	
Nc1c(-c2ccc3[nH]cnc3c2)c(=O)n(-c2ccc(Cl)cc2)c2nc(C(F)(F)F)ccc12 [Example 50]	17.2 nM	
Nc1c(-c2ccnc(C(F)(F)F)c2)c(=O)n(-c2ccc(Cl)cc2)c2nc(C(F)(F)F)ccc12 [Example 77]	13.9 nM	
CS(=O)(=O)CCn1cc2cc(-c3c(N)c4ccc(C(F)(F)F)nc4n(-c4ccc(Cl)cc4)c3=O)ccc2n1 [Example 51]	16.2 nM	
Nc1c(-c2cc3nccnc3cn2)c(=O)n(-c2ccc(Cl)cc2)c2nc(C(F)(F)F)ccc12 [Example 59]	25.4 nM	
Cc1ccc(-n2c(=O)c(-c3ccc4c(c3)OCCO4)c(N)c3ccc(C(F)(F)F)nc32)cc1 [Example 88]	16 nM	
Nc1c(-c2ccc3nn[nH]c3c2)c(=O)n(-c2ccc(Cl)cc2)c2nc(C(F)(F)F)ccc12 [Example 62, 4-amino-3-(1H-benzo[d][1,2,3]triazol-6-yl)-1-(4-chlorophenyl)-7-(trifluoromethyl)-1,8-naphthyridin-2(1H)-one]	16.1 nM	
Nc1c(-c2ccn3ncnc3c2)c(=O)n(-c2ccc(Cl)cc2)c2nc(C(F)(F)F)ccc12 [Example 60]	17 nM	
Cn1cc(-c2c(N)c3ccc(C(F)(F)F)nc3n(-c3ccc(Cl)c(F)c3)c2=O)ccc1=O [Example 74]	16.4 nM	

Results, then the molecule that gave them:

IC50 (MAT2a)	IC50 (HCT116 MTAP-/- cells)	Compound
8.7 nM		CNc1c(-c2ncc[nH]2)c(=O)n(-c2ccccc2)c2nc(C(F)(F)F)ccc12 [Example 8, 3-(1H-imidazol-2-yl)-4-(methylamino)-1-phenyl-7-(trifluoromethyl)-1,8-naphthyridin-2(1H)-one]
21.4 nM		CNc1c(-c2ccoc2)c(=O)n(-c2ccccc2)c2nc(C(F)(F)F)ccc12 [Example 9]
26.3 nM		N#Cc1ccc(-c2c(N)c3ccc(C(F)(F)F)nc3n(-c3ccc(Cl)cc3)c2=O)cc1 [Example 40]
17.4 nM		Nc1c(-c2ccc3ccccc3c2)c(=O)n(-c2ccc(Cl)cc2)c2nc(C(F)(F)F)ccc12 [Example 58]
32 nM	638 nM	CNc1c(-c2ccccc2)c(=O)n(-c2ccccc2)c2nc(C(F)(F)F)ccc12 [Example 13]
25.3 nM		Cn1cccc1-c1c(N)c2ccc(C(F)(F)F)nc2n(-c2ccc(Cl)cc2)c1=O [Example 28]
25.2 nM	427 nM	CNc1c(-c2cncs2)c(=O)n(-c2ccccc2)c2nc(C(F)(F)F)ccc12 [Example 29]
25.8 nM		CNc1c(-c2cncs2)c(=O)n(-c2ccc(Cl)cc2)c2nc(C(F)(F)F)ccc12 [Example 12]
18 nM		Cc1ccc(-n2c(=O)c(-c3ccnc(C)c3)c(N)c3ccc(C(F)(F)F)nc32)cc1 [Example 91]
16.3 nM		COc1ccc(-c2c(N)c3ccc(C(F)(F)F)nc3n(-c3ccc(Br)cc3)c2=O)cn1 [Example 93]
37.9 nM	800 nM	CNc1c(-c2ncco2)c(=O)n(-c2ccccc2)c2nc(C(F)(F)F)ccc12 [Example 7, 4-(methylamino)-3-(oxazol-2-yl)-1-phenyl-7-(trifluoromethyl)-1,8-naphthyridin-2(1H)-one]
17 nM		Cc1ccc(-n2c(=O)c(-n3cccn3)c(N)c3ccc(C(F)(F)F)nc32)cc1 [Example 81]
14.9 nM		Nc1c(-c2ccc3nncn3c2)c(=O)n(-c2ccc(Cl)cc2)c2nc(C(F)(F)F)ccc12 [Example 32]
28.2 nM		Nc1c(-c2ccc(F)cc2)c(=O)n(-c2ccc(Br)cc2)c2nc(C(F)(F)F)ccc12 [Example 84]
20.9 nM		CNc1c(-c2cccs2)c(=O)n(-c2ccccc2)c2nc(C(F)(F)F)ccc12 [Example 10]
16.3 nM		N#Cc1cc(-c2c(N)c3ccc(C(F)(F)F)nc3n(-c3ccc(Cl)cc3)c2=O)ccn1 [Example 76]
22.9 nM		Cc1ccc(-c2c(N)c3ccc(C(F)(F)F)nc3n(-c3ccc(Cl)cc3)c2=O)o1 [Example 14]
13.8 nM		Cc1cc(-c2c(N)c3ccc(C(F)(F)F)nc3n(-c3ccc(Cl)cc3)c2=O)ccn1 [Example 75]
20.2 nM		Nc1c(-c2cncs2)c(=O)n(-c2ccc(Cl)cc2)c2nc(C(F)(F)F)ccc12 [Example 33]
16.5 nM		Cc1ccc(-n2c(=O)c(-c3ccc4nn(C)cc4c3)c(N)c3ccc(C(F)(F)F)nc32)cc1 [Example 89]
15.4 nM	9.77 nM	COc1cc(-c2c(N)c3ccc(C(F)(F)F)nc3n(-c3ccc(C)cc3)c2=O)ccn1 [Example 87]
18 nM	10.9 nM	COc1ccc(-c2c(N)c3ccc(C(F)(F)F)nc3n(-c3ccc(Br)cc3)c2=O)cc1 [Example 79, 4-amino-1-(4-bromophenyl)-3-(4-methoxyphenyl)-7-(trifluoromethyl)-1,8-naphthyridin-2(1H)-one]
51.4 nM		Nc1c(-c2ccc3cccnc3c2)c(=O)n(-c2ccc(Cl)cc2)c2nc(C(F)(F)F)ccc12 [Example 18]
18.5 nM		Nc1c(-c2ccn3cncc3c2)c(=O)n(-c2ccc(Cl)cc2)c2nc(C(F)(F)F)ccc12 [Example 71]
16 nM		Cn1ncc2cc(-c3c(N)c4ccc(C(F)(F)F)nc4n(-c4ccc(Cl)cc4)c3=O)ccc21 [Example 66]
26.1 nM		CNc1c(-c2nccs2)c(=O)n(-c2ccccc2)c2nc(C(F)(F)F)ccc12 [Example 2, 4-(methylamino)-1-phenyl-3-(thiazol-2-yl)-7-(trifluoromethyl)-1,8-naphthyridin-2(1H)-one]
15.2 nM		Nc1c(-c2ccccc2)c(=O)n(-c2ccc(Cl)cc2)c2nc(C(F)(F)F)ccc12 [Example 65]
16.9 nM		Cc1ccc(-n2c(=O)c(-c3ccn4ncnc4c3)c(N)c3ccc(C(F)(F)F)nc32)cc1 [Example 90]
21.4 nM		CNc1c(-c2ccco2)c(=O)n(-c2ccccc2)c2nc(C(F)(F)F)ccc12 [Example 11]
